Assay results: patent US9492471B2, “Methods of treating a disease or disorder associated with Bruton'S Tyrosine Kinase” (Celgene Avilomics Research, Inc., priority 2013, dated 2016)
Where two headings read alike, the source gives them in different places.

Columns and labels:
Assay in all cases: HotSpot kinase profiling
Format in all cases: biochemical
PDK1/PDPK1 = molecular target: T1, PDK1/PDPK1 (Homo sapiens, UniProt O15530)
T1 construct: purchased Reaction Biology Corp
T1 sequence (O15530 1-556): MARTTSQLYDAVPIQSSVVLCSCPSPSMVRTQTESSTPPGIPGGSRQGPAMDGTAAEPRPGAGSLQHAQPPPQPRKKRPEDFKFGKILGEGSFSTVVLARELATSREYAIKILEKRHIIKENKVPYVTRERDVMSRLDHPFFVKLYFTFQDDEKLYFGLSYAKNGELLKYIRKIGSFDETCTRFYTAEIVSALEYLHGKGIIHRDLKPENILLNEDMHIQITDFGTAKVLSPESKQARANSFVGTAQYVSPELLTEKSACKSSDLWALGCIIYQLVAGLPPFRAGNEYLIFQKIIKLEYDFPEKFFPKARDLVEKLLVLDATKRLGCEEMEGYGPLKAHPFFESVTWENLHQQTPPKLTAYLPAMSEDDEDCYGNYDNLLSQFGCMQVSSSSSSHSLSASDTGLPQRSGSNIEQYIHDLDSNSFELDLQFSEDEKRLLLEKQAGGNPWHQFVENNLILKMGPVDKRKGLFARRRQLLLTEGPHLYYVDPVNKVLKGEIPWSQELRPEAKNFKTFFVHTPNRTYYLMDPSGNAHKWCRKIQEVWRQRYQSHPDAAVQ
Summary of the method: (§1)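 Activity is measured by radiolabel transfer captured on P81 filters after a 2 h room-temperature reaction of kinase, substrate and cofactors. Values are percent inhibition against DMSO.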

COT1/MAP3K8 = molecular target: T2, COT1/MAP3K8 (Homo sapiens, UniProt P41279)
T2 construct: purchased Reaction Biology Corp
T2 sequence (P41279 whole entry): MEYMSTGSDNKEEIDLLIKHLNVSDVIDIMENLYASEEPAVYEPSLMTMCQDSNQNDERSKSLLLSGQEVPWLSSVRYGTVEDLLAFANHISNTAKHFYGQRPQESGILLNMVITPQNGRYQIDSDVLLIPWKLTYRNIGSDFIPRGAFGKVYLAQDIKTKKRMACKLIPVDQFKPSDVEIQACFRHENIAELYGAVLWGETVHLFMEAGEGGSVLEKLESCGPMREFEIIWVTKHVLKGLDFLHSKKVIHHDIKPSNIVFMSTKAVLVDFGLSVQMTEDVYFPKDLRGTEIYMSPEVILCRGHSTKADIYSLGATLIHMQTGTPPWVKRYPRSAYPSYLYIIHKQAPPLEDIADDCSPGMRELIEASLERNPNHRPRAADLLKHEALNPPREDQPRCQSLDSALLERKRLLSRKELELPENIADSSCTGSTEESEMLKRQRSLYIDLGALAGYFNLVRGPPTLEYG
Summary of the method: as §1

JAK3 = molecular target: T3, JAK3 (Homo sapiens, UniProt P52333)
T3 construct: purchased Reaction Biology Corp
T3 sequence (P52333 1-1124): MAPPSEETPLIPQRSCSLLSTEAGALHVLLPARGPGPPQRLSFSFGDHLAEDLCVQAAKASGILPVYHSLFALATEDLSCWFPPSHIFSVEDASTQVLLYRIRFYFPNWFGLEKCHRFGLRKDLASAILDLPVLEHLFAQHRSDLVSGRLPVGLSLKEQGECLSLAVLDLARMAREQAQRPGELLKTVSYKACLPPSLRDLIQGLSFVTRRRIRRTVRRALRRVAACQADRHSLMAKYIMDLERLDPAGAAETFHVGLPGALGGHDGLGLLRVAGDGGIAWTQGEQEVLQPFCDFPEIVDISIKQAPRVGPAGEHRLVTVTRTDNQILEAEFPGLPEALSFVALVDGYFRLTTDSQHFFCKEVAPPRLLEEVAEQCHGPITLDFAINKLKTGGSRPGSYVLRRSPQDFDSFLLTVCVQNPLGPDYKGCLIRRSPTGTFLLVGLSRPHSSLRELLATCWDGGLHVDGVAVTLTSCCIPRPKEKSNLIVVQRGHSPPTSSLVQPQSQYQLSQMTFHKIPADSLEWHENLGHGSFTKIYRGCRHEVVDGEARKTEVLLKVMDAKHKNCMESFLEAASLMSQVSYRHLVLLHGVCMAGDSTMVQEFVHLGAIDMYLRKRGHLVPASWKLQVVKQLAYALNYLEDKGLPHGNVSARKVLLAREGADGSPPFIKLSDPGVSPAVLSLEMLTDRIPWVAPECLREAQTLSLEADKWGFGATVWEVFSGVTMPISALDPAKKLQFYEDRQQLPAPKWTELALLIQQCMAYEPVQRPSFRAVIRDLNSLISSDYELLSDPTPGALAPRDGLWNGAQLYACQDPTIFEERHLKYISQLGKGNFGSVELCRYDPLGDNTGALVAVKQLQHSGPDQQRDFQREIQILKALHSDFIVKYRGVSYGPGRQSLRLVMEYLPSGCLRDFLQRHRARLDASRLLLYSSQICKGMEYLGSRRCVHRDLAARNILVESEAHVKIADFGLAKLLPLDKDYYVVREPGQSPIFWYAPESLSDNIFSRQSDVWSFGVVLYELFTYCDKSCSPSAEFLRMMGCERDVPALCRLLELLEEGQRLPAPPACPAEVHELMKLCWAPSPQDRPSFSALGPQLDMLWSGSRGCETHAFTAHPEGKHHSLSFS
Summary of the method: as §1

EGFR = molecular target: T4, EGFR (Homo sapiens, UniProt P00533)
T4 construct: purchased Reaction Biology Corp
T4 sequence (P00533 25-1210): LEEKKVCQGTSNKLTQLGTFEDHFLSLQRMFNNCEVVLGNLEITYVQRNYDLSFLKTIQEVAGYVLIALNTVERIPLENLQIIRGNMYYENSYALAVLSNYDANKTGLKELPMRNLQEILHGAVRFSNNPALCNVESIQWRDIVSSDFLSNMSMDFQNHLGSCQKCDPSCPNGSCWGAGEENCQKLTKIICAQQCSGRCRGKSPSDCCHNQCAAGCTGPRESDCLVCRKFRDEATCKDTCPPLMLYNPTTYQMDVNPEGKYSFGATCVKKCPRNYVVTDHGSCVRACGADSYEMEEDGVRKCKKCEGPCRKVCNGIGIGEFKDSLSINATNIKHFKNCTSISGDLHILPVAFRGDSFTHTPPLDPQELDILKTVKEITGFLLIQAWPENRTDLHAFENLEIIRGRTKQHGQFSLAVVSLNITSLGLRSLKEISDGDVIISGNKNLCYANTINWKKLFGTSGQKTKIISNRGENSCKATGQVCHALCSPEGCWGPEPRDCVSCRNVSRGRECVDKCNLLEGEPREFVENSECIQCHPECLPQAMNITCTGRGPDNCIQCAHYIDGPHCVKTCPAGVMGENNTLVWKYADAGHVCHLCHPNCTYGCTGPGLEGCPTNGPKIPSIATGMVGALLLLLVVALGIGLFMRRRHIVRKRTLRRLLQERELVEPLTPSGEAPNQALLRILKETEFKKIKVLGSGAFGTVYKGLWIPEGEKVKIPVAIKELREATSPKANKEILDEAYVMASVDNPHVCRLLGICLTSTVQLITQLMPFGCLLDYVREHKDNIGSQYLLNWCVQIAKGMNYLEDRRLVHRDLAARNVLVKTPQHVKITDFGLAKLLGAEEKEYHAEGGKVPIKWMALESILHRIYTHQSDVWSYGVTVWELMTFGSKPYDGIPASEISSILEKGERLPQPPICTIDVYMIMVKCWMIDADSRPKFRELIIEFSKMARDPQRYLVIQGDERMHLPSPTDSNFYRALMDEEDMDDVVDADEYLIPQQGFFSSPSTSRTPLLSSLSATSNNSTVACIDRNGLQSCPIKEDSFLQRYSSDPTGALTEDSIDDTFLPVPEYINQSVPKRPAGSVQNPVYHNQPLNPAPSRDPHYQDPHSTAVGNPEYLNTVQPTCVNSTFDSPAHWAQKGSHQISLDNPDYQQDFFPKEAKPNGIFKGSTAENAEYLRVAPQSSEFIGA
Summary of the method: as §1

IRAK4 = molecular target: T5, IRAK4 (Homo sapiens, UniProt Q9NWZ3)
T5 construct: purchased Reaction Biology Corp
T5 sequence (Q9NWZ3 1-460): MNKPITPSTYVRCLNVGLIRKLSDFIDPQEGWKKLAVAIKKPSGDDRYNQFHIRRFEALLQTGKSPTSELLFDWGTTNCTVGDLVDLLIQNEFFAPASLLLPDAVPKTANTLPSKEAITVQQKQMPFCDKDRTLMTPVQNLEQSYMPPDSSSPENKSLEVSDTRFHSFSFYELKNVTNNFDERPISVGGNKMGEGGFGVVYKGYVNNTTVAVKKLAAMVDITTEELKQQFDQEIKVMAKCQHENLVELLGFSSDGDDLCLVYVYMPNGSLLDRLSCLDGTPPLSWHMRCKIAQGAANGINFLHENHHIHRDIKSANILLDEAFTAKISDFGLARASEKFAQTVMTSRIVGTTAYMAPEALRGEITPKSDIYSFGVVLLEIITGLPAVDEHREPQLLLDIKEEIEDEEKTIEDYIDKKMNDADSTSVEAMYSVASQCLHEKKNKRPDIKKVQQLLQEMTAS
Summary of the method: as §1

[1] = read-out: % Enzyme Activity (relative to DMSO controls) Run 1
[2] = read-out: % Enzyme Activity (relative to DMSO controls) Run 2

Q: Which inhibition at 3 µM (PDK1/PDPK1) does the source give for `C=CC(=O)Nc1cccc(Nc2nc(Nc3ccc(OCCOC)c(F)c3)ncc2F)c1` [Compound 2] here?
A: -5.96%

Q: What about the remaining activity at 3 µM (PDK1/PDPK1; [1]) of the same molecule?
A: 107%

Q: And the remaining activity at 3 µM (PDK1/PDPK1; [2])?
A: 105%

Q: And the inhibition at 3 µM (COT1/MAP3K8)?
A: -1.33%

Q: What about the remaining activity at 3 µM (COT1/MAP3K8; [1]) of the same molecule?
A: 102%

Q: And the remaining activity at 3 µM (COT1/MAP3K8; [2])?
A: 101%

Q: And the inhibition at 3 µM (JAK3)?
A: 97.4%

Q: What about the remaining activity at 3 µM (JAK3; [1]) of the same molecule?
A: 2.53%

Q: What about the remaining activity at 3 µM (JAK3; [2]) of the same molecule?
A: 2.73%

Q: And the inhibition at 3 µM (EGFR)?
A: 80.3%

Q: What about the remaining activity at 3 µM (EGFR; [1]) of the same molecule?
A: 19.2%

Q: What about the remaining activity at 3 µM (EGFR; [2]) of the same molecule?
A: 20.2%

Q: And the inhibition at 3 µM (IRAK4)?
A: 12.4%

Q: What about the remaining activity at 3 µM (IRAK4; [1]) of the same molecule?
A: 88.6%

Q: And the remaining activity at 3 µM (IRAK4; [2])?
A: 86.5%
